Test results reported in patent US20230322735A1, “AZETIDINYL TRYPTAMINES AND METHODS OF TREATING PSYCHIATRIC DISORDERS” (priority 2020, published 2023).

How the values were obtained:
Sprague Dawley rats = experiment: Forced swim test (FST) in rats; type: in vivo, rat; details: SC
Experimental: These effects on swimming were stronger than those induced by the control antidepressant desipramine.
Animals. Male Sprague Dawley rats, aged 8-10 weeks, were used in the experiments. Animals were housed in groups of 2 under controlled temperature (22±3° C.) and relative humidity (30-70%) conditions, with 12-hour light/dark cycles, and with ad libitum food and water. These studies were carried out in strict accordance with the requirements of the Committee for the Purpose of Control and Supervision of Experiments on Animals (CPCSEA), India. All efforts were made to minimize suffering.
Drugs and Drug Administration. Compound 2 was prepared as described above. All other compounds were commercially obtained. Test compounds, saline vehicle, and the positive control desipramine were administered subcutaneously (SC), with doses calculated based on the free base. […] All compounds were administered at a volume of 5 mL/kg. Test compounds and vehicle were administered 0.5 h after the start of the training swim (Swim 1) and 23.5 h before the test swim (Swim 2). Desipramine was administered 3 times, at 23.5 h, 5 h, and 1 h before the test swim (Swim 2), each time at a dose of 20 mg/kg.
Forced Swim Test (FST). […] Group size was N=10 per treatment, except for the vehicle and desipramine groups, which were N=20. Rats were handled for about 2 min daily for the 5 days prior to the beginning of the experimental procedure. On the first day of the experiment (i.e., Day 0), post randomization, training swim sessions (Swim 1) were conducted between 12:00 and 18:00 h with all animals by placing rats in individual glass cylinders (46 cm tall×20 cm in diameter) containing 23-25° C. water 30 cm deep for 15 minutes. At the conclusion of Swim 1, animals were dried with paper towels, placed in heated drying cages for 15 minutes, and then returned to their home cages. […]
Behavioral scoring was conducted by observers who were blind to the treatment groups. Animals were continuously observed during Swim 2 and the total time spent engaging in the following behaviors was recorded: immobile, swimming, and climbing. […]

human 5-HT2C receptor = target: T1, human 5-HT2C receptor (Homo sapiens, UniProt P28335); experiment: cell-based; details: Ca2+ flux, agonist mode
T1 sequence (P28335 33-458): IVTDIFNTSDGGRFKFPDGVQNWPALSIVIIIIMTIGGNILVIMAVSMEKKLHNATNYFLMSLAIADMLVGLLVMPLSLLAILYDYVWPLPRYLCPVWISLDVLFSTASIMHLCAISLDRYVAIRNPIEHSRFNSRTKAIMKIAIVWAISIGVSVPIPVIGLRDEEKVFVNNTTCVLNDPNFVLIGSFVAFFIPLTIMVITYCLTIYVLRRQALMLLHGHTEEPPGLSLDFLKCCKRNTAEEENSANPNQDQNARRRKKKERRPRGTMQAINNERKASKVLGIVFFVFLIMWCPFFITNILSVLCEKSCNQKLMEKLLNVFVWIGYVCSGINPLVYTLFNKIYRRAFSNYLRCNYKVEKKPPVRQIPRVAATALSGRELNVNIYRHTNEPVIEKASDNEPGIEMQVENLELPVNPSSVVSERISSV

5-HT1A receptor = target: T2, 5-HT1A receptor (Homo sapiens, UniProt P08908); experiment: FLIPR Ca2+ flux agonist assay at 5-HT1A (CHO cells); type: cell-based
T2 construct: host or cells: CHO cells
T2 sequence (P08908 1-422): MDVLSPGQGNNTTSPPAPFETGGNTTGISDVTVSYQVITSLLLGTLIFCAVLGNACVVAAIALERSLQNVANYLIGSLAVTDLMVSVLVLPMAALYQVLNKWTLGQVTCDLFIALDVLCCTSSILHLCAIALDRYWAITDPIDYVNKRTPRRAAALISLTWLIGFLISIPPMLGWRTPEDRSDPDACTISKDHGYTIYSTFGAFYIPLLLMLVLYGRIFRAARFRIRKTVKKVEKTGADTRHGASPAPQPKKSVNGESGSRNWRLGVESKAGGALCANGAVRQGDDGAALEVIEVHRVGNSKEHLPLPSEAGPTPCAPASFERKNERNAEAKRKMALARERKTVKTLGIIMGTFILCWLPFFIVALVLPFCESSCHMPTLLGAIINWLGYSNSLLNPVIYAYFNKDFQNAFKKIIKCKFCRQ
Experimental: (§1) A solution of 250 mM probenecid in 1 mL FLIPR assay buffer was prepared fresh. This was combined with a fluorescent dye (Fluo-4 Direct™) to make a final assay concentration of 2.5 mM. […] The fluorescent dye was then added to the assay plate along with assay buffer to a final volume of 40 μL. The cell plate was incubated for 50 min at 37° C. and 5% CO2 and placed into the FLIPR Tetra along with the compound plate. 10 μL of references and compounds were then transferred from the compound plate into the cell plate and the fluorescent signal was read.

5-HT2B receptor = target: T3, 5-HT2B receptor (Homo sapiens, UniProt P41595); experiment: FLIPR Ca2+ flux agonist assay at 5-HT2B (HEK293); type: cell-based
T3 construct: host or cells: HEK293
T3 sequence (P41595 whole entry): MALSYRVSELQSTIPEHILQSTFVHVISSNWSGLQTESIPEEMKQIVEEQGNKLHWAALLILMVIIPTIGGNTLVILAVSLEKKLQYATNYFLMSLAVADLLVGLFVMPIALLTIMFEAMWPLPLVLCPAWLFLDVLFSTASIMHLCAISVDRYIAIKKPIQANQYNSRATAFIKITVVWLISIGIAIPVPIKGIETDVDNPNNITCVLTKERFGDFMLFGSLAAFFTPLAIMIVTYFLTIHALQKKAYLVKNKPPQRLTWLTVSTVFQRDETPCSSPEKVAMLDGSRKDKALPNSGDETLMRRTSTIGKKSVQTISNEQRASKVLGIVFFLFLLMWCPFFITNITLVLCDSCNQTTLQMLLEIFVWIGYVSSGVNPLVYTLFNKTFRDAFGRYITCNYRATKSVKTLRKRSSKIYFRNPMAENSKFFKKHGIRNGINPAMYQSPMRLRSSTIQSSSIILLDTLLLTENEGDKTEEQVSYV
Experimental: as §1

[1] = Stability in mouse brain homogenate
C57BL/6 mice = experiment: Head twitch response (HTR) in mice; type: in vivo, mouse; details: SC
[2] = Metabolic stability in human liver microsomes (HLM)
[3] = Stability in rat brain homogenate
[4] = single dose 23.5 h before test swim, vs vehicle
[5] = both, human, pooled human liver microsomes, pH 7.4

SMILES: Oc1cccc2[nH]cc(CCN3CCC3)c12 [Compound 2, 3-(2-(azetidin-1-yl)ethyl)-1H-indol-4-ol]
- dose with significant effect on immobility in the FST (Sprague Dawley rats; 23.5 h pre-treatment, lowest dose tested): ≤ 0.1 mg/kg
- immobility time in the FST (Sprague Dawley rats; [4]): reduced immobility time
- swimming time in the FST (Sprague Dawley rats; [4]): significant increases in swimming
- 5-HT2C % Act @ Max Dose (human 5-HT2C receptor): 48.4%
- EC50 (human 5-HT2C receptor): 279 nM
- EC50 (5-HT1A receptor): 1030 nM
- 5-HT1A % Act @ Max Dose (5-HT1A receptor; Ca2+ flux, agonist mode, CHO cells): 102%
- EC50 (5-HT2B receptor): > 10000 nM
- 5-HT2B % Act @ Max Dose (5-HT2B receptor; Ca2+ flux, agonist mode, HEK293): 3.83%
- stability in mouse brain homogenate (in words) [1]: good stability
- half-life at 1 μM ([1]; male, CD-1, mouse, mouse brain homogenate): > 4.82 h
- % Compound Remaining (after 120 min) ([1]; mouse brain homogenate (male CD-1), 1 μM, 37° C., 120 min): 74.2%
- Average HTR Over 20-min Test (C57BL/6 mice; dose 0.1 mg/kg): 4.667
- Average HTR Over 20-min Test (C57BL/6 mice; dose 1 mg/kg): 8.667
- Average HTR Over 20-min Test (C57BL/6 mice; dose 10 mg/kg): 9.000
- half-life at 1 μM [2, 5]: > 2.42 h
- microsomal CLint at 1 μM [2, 5]: < 9.6 µL/min/mg
- metabolic stability in HLM compared with dimethyl counterpart ([2]; vs DMT, psilocin, 5-MeO-DMT respectively): greater metabolic stability
- stability in rat brain homogenate (in words) [3]: good stability
- half-life at 1 μM ([3]; male, Sprague Dawley, rat, rat brain homogenate): 2.91 h
- % Compound Remaining (after 120 min) ([3]; rat brain homogenate (male Sprague Dawley), 1 μM, 37° C., 120 min): 56.8%
